# Experimental data: US6166067A, “Inhibitors of cholesterol-biosynthesis for reducing the cholesterol content of poultry eggs” (priority 1998, dated 2000)
# Tests used:
# [1] = tested on: cholesterol; settings: high doses; cited from earlier work
# [2] = tested on: triglycerides in the yolk; test: Triglycerides in egg yolk, laying-hen feeding trial (Example 1); assay type: in vivo, laying hens (Lohmann Selected Leghorn); settings: both dosages (1500 and 15000 mg/kg feed); 4 weeks
# Experimental: At the start of the trial, the laying hens (Lohmann Selected Leghorn) had been laying for 28 weeks. One treatment group consisted of 10 hens. The birds were initially fed with the various active ingredients for 4 weeks. The eggs were then collected for the analyses. 3 independent yolk pools were formed from 6 eggs in each case and were deep-frozen until analyzed. Total cholesterol and triglycerides in the yolk were analyzed by enzymatic methods. The analyses were carried out as stated in the handbook "Veterinarmedizinische Laboruntersuchungen fur die Diagnose und Verlaufskontrolle" (1985), 3rd edition, published by Boehringer Mannheim GmbH, Mannheim.
# (§1) The triglycerides are determined enzymatically via their glycerol content. The triglycerides are cleaved enzymatically by the enzymes lipase and esterase. The resulting glycerol is phosphorylated by ATP to glycerol 3-phosphate in the reaction catalyzed by glycerol kinase GK.
# glycerol+ATP.revreaction.glycerol 3-phosphate+ADP
# The resulting ADP is converted by pyruvate kinase (PK) with phosphoenolpyruvate (PEP) back into ATP, with formation of pyruvate. [drawing 6] Pyruvate is hydrogenated to lactate by lactate dehydrogenase (LDH) with NADH, the NADH being oxidized to NAD. [drawing 7]
# The amount of NADH consumed during the reaction is equivalent to the amount of glycerol. NADH is the measured variable and can easily be determined from its absorption at Hg 366 nm, Hg 334 nm or 340 nm.
# The data were subjected to analysis of variance, and differences between means were ranged by the Duncan test.
# [3] = tested on: plasma cholesterol; test: Cholesterol in plasma, laying-hen feeding trial (Example 2); assay type: in vivo, laying hens; settings: 500 mg/kg feed; control 125.3
# Excerpt: (§2) For the cholesterol determination, the cholesterol esters were cleaved to cholesterol and fatty acid by the action of cholesterol esterase. Free cholesterol is converted by atmospheric oxygen with the involvement of cholesterol oxidase into Δ^4 -cholestenone and hydrogen peroxide. The resulting hydrogen peroxide forms with 4-aminophenazone and phenol through the catalytic action of peroxidase a red dye whose intensity of color is directly proportional to the cholesterol concentration and can be measured at 500 to 550 nm.
# (§3) Another feeding experiment was carried out in analogy to Example 1. In this case the intention was to test not only α- and δ-tocotrienol but also a tocotrienol precursor (4-oxo-γ-tocotrienol) and other terpenoids such as farnesyl acetate, perillyl alcohol, linalool and β-ionone, in laying hens.
# (§4) The trial protocol corresponds to that in Example 1 but with the following amendments:
# (§5) The number of birds comprised 8 hens per treatment.
# (§6) 4 birds in each case from the control and the high dosages were sacrificed at the end of the trial. After taking blood to obtain plasma, the birds were completely exsanguinated. The liver was then removed and deep frozen until analyzed.
# (§7) Triglyceride and cholesterol were determined in 4 independent yolk pools(each from 6 eggs) and plasma.
# [4] = tested on: plasma triglyceride; test: Triglycerides in plasma, laying-hen feeding trial (Example 2); assay type: in vivo, laying hens; settings: 500 mg/kg feed; control 2496
# Experimental: as §1, §3, §4, §5, §6, §7
# [5] = design: species or system laying hens; settings: in vivo
# Experimental: (§8) Tocopherols and tocotrienols in the yolk pools were determined by HPLC. To do this, the sample is hydrolyzed in aqueous alcoholic medium and extracted several times with diethyl ether. Quantification takes place by comparison with external standards.
# as §3, §4, §5
# (§9) In addition, α-, δ- and 4-oxo-γ-tocotrienol in yolk and liver (treatments 1 to 7) were determined.
# [6] = tested on: cholesterol content of poultry eggs; settings: literature (Huggett et al.; Beyer and Jensen); cited from earlier work
# [7] = tested on: triglycerides in yolk; test: Triglycerides in egg yolk, laying-hen feeding trial (Example 2); assay type: in vivo, laying hens; settings: control 170.4
# Experimental: as §1, §3, §4, §5, §7
# [8] = tested on: cholesterol in yolk; test: Cholesterol in egg yolk, laying-hen feeding trial (Example 2); assay type: in vivo, laying hens; settings: for Cholesterol, yolk: control 10.23
# Excerpt: as §2, §3, §4, §5, §7
# [9] = design: species or system laying hens; settings: in vivo; remark: listed apart in the source
# Experimental: as §8, §3, §4, §6, §9
increase for tocotrienols in yolk [5],detectability in the birds' livers [9],SMILES,cholesterol-lowering effect [1],triglyceride content in the yolk [2],"Cholesterol, plasma [3]","Triglycerides, plasma [4]",effect on β-tocopherol [5],effect on the cholesterol content in eggs [6],"Triglycerides, yolk ([7]; 50 mg/kg feed)","Triglycerides, yolk ([7]; 500 mg/kg feed)","Cholesterol, yolk ([8]; 50 mg/kg feed)","Cholesterol, yolk ([8]; 500 mg/kg feed)",trend in yolk cholesterol content ([8]; Example 2)
,,"O=C(O)c1cccnc1 [nicotinic acid, reference compound]",cholesterol-lowering effect,significantly increased,,,,,,,,,
most pronounced increase,detectable in the birds' livers,"CC(C)=CCC/C(C)=C/CC/C(C)=C/CC[C@]1(C)CCc2c(C)c(O)c(C)c(C)c2O1 [α-Tocotrienol, α-tocotrienol]",,,130.3 mg/dL,4195 mg/dL,effect on β-tocopherol only by the α-tocotrienol treatments,no effect,189.9 mg/g,195.1 mg/g,9.85 mg/g,9.45 mg/g,trend toward reduced cholesterol contents in yolk
